The text below walks through data of patent CN110668932A, “一种共晶体及制备方法、包含共晶体的药物组合物及用途” (Individual, priority 2019, dated 2020).

The test system of series [1] is metabolic syndrome model rats (代谢综合征模型大鼠). Put plainly: Effect in metabolic syndrome model rats (Experimental Example 4). Type of series: in vivo, rat. The note with it: 10 mL/kg, once daily, gavage, 8 weeks; for serum LDL-C level vs control group / serum TG level vs control group: compared with control group (standard feed); for serum LDL-C level vs model group / serum TG level vs model group: compared with model group.

In series [2] the test system is human gastric cancer SGC-7901 cells, human liver cancer Bet-7402 cells, human lung cancer H460 cells (人胃癌SGC-7901细胞、人肝癌Bet-7402细胞、人肺癌H460细胞). Put plainly: In vivo antitumour experiment in mice (Experimental Example 1). More on the design: species or system mouse. The note with it: 2 mg/kg active ingredient, oral, twice daily, 15-20 days; for tumor size / weight vs negative control group: compared with negative control group; for tumor inhibition effect: mice.

Series [3] in a line: Liver injury side effect experiment in mice, ALT and AST (Experimental Example 5). Type of series: in vivo, mouse. The settings on record: 0.012 g/kg, gavage, 2 weeks, Kunming mice; for ALT / ASL: serum, compared with normal control group.

For the compound `COc1cc(CCC(=O)CC(=O)CCc2ccc(O)c(OC)c2)ccc1O` [SHCUR, 四氢姜黄素], in series [1], the “serum LDL-C level vs control group” value is given as “较高”, the “serum TG level vs control group” value is “较高”, the “serum LDL-C level vs model group” value is reported as “较低” and the “serum TG level vs model group” value is reported as “较低”. In series [2], the “tumor size / weight vs negative control group” value is reported as “肿瘤明显减小,低于阴性对照组” and the tumor inhibition effect result is “具有较好的抑制肿瘤的效果”. Also, in series [3], the liver injury effect result was “没有明显肝损伤作用”, the ALT entry is on record as “与正常对照组相近” and the ASL result is on record as “与正常对照组相近”.
Take `COc1cc(CCC(=O)CC(=O)CCc2ccc(O)cc2)ccc1O` [SHDMCUR, 四氢去甲氧基姜黄素]: in series [1], the “serum LDL-C level vs control group” value is “较高”, the “serum TG level vs control group” value is reported as “较高”, the “serum LDL-C level vs model group” value is recorded as “较低” and the “serum TG level vs model group” value is given as “较低”. Further, in series [2], the “tumor size / weight vs negative control group” value was “肿瘤明显减小,低于阴性对照组” and the tumor inhibition effect result is “具有较好的抑制肿瘤的效果”. For the same compound, in series [3], the liver injury effect result is on record as “没有明显肝损伤作用”, the ALT result is given as “与正常对照组相近” and the ASL entry was “与正常对照组相近”.
As to `O=C(CCc1ccc(O)cc1)CC(=O)CCc1ccc(O)cc1` [四氢双去甲氧基姜黄素], in series [1], the “serum LDL-C level vs control group” value is listed as “较高”, the “serum TG level vs control group” value is on record as “较高”, the “serum LDL-C level vs model group” value is listed as “较低” and the “serum TG level vs model group” value is recorded as “较低”. In series [2], the “tumor size / weight vs negative control group” value is listed as “肿瘤明显减小,低于阴性对照组” and the tumor inhibition effect entry is recorded as “具有较好的抑制肿瘤的效果”. For the same compound, in series [3], the liver injury effect result is “没有明显肝损伤作用”, the ALT entry was “与正常对照组相近” and the ASL entry was “与正常对照组相近”.
Consider `CC(=O)O[C@H]1C(=O)[C@@]2(C)[C@H]([C@H](OC(=O)c3ccccc3)[C@]3(O)C[C@H](OC(=O)[C@H](O)[C@@H](NC(=O)c4ccccc4)c4ccccc4)C(C)=C1C3(C)C)[C@]1(OC(C)=O)CO[C@@H]1C[C@@H]2O` [紫杉醇], for which, in series [2], the “tumor size / weight vs negative control group” value was “肿瘤明显减小,低于阴性对照组” and the tumor inhibition effect result is recorded as “具有较好的抑制肿瘤的效果”.
